The test deals with Recombinant human liver glucokinase (Homo sapiens (Human), UniProt P35557). Briefly: Glucokinase activation assay (G6PDH-coupled, Thio-NADH absorbance at 405 nm). The test is classed as biochemical. As to conditions: for EC50: 2.5 mM Glu, 30° C. The text has this: The glucokinase activity can, for instance, be determined without directly measuring glucose-6-phosphate by measuring the amount of Thio-NADH generated during the production of phosphogluconolactone from glucose-6-phosphate by a reporter enzyme glucose-6-phosphate dehydrogenase.
Chain of Recombinant human liver glucokinase (P35557 other isoform, or with tags, fused parts or gaps): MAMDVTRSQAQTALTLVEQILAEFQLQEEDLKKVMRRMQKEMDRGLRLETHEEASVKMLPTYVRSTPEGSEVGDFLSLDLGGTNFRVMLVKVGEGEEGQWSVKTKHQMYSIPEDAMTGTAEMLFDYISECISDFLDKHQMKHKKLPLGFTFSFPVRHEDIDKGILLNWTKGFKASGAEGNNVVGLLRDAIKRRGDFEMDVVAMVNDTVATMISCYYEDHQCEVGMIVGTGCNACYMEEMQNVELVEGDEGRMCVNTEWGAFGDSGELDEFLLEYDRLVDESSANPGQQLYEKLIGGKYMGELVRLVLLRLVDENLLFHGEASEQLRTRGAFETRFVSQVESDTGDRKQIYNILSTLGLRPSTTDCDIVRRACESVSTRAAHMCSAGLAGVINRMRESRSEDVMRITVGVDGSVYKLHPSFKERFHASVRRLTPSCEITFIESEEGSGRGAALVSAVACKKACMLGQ
To test the exemplified compounds, the following assay was employed. Recombinant human liver glucokinase was expressed as a FLAG fusion protein in E. coli, and purified on […] M2 AFFINITY GEL (Sigma). The assay was carried out at 30° C. in a 96-well plate. In the plate was distributed 69 μl each of assay buffer (25 mM Hepes Buffer: pH=7.2, 2 mM MgCl2, 1 mM ATP, 0.5 mM TNAD, 1 mM dithiothreitol), to which was added 1 μl of a DMSO solution of the compound or DMSO as control. Then, 20 μl of pre-ice-cooled enzyme mixture (FLAG-GK, 20 U/ml G6PDH) was distributed thereto, to which was added 10 μl of 25 mM glucose as substrate to initiate the reaction (final glucose concentration=2.5 mM). After starting the reaction, the absorbance at 405 nm was measured every 30 seconds for 10 minutes to evaluate the compound based on the initial increase for 5 minutes. FLAG-GK was added so that the increase of absorbance after 5 minutes fell between 0.05 to 0.1 in the presence of 1% DMSO.
The OD values of the respective compounds were measured in the respective concentrations, wherein the OD value of DMSO as control is regarded as 100%.

For orientation: Emax means the greatest response seen or fitted, relative to the assay's reference. Broadly, the EC50 is the midpoint of the concentration-response curve.

For the compound `CCOC(=O)Cc1nc(NC(=O)c2nc(Sc3nncn3C)ccc2Sc2ccc(Cl)c(Cl)c2)sc1Cl` [Example 53, Ethyl {5-chloro-2-[({3-[(3,4-dichlorophenyl)sulfanyl]-6-[(4-methyl-4H-1,2,4-triazol-3-yl)sulfanyl]pyridin-2-yl}carbonyl)amino]-1,3-thiazol-4-yl}acetate], the maximal effect (Emax) turned out to be 426% and the half-maximal effective concentration (EC50) was 7.6 nM.
On the same counts, the results for `Cn1cnnc1Sc1ccc(Sc2ccc(Cl)c(Cl)c2)c(C(=O)Nc2nc(CC(=O)O)c(Cl)s2)n1` [Example 54, {5-Chloro-2-[({3-[(3,4-dichlorophenyl)sulfanyl]-6-[(4-methyl-4H-1,2,4-triazol-3-yl)sulfanyl]pyridin-2-yl}carbonyl)amino]-1,3-thiazol-4-yl}acetic acid] are 523% and 23.3 nM.

These data come from US9527838B2, “2-pyridinecarboxamide derivatives, compositions containing such compounds, and methods of treatment” (priority 2012, dated 2016).
